Among the data in ChEMBL document CHEMBL1128797, “Annohexocin, a novel mono-THF acetogenin with six hydroxyls, from Annona muricata (Annonaceae)” (Bioorg Med Chem Lett, 1995) are EC50 and LC50 values, retold here.

As usually defined, the LC50 is the concentration lethal to half of the exposed cells or organisms.

≈ marks a conversion by molar mass, not a printed value.

One data set deals with A549. Briefly: Cytotoxic activity was tested against human […] cell line A-549 (lung carcinoma). It is filed as functional. The conditions noted are these: read-out: ED50 (the source's name).
Another data set deals with HT-29. The data set is described as follows: Cytotoxic activity was tested against human HT-29 (colon adenocarcinoma) cell line. It is filed as functional. As to conditions: read-out: ED50 (the source's name).
For the next data set, the system named is A498. Briefly: Cytotoxic activity was tested against human A-498 (Kidney carcinoma) cell line. It counts as functional. As to conditions: read-out: ED50 (the source's name).
The subject of another data set is PC-3. The data set is described as follows: Cytotoxic activity was tested against human PC-3 (prostate adenocarcinoma) cell line. It is filed as functional. The conditions noted are these: read-out: ED50 (the source's name).
The subject of the next data set is MCF7. The data set is described as follows: Cytotoxic activity was tested against human MCF-7 (breast carcinoma) cell line. As to conditions: read-out: ED50 (the source's name). It is filed as functional.
Data set [1] relates to MIA PaCa-2. The data set is described as follows: Cytotoxic activity was tested against human PAC-2 (pancreatici carcinoma) cell line. It is filed as functional. As to conditions: read-out: ED50 (the source's name).
Data set [2] deals with MIA PaCa-2. Briefly: Cytotoxic activity was tested against humanPAC-2 (pancreatic carcinoma) cell line. As to conditions: Homo sapiens, read-out: ED50 (the source's name). It is filed as functional.
Data set [3] can be described thus: Compound was tested for brine shrimp lethality (BST). It is filed as organism-based. The conditions noted are these: artemia, in vivo.

`COc1cccc2c1C(=O)c1c(O)c3c(c(O)c1C2=O)C[C@@](O)(C(=O)CO)C[C@@H]3O[C@H]1C[C@H](N)[C@H](O)[C@H](C)O1` [DOXORUBICIN]: the EC50 is 0.0346 µg/mL (≈ 0.0637 µM) in the data set on A549; 0.0896 µg/mL (≈ 0.165 µM) in the data set on HT-29; 0.0335 µg/mL (≈ 0.0616 µM) in the data set with A498; 0.33 µg/mL (≈ 0.607 µM) in the data set with PC-3; 0.43 µg/mL (≈ 0.791 µM) in the data set with MCF7; 0.031 µg/mL (≈ 0.057 µM) in the data set with MIA PaCa-2 [1].

`CCCCCCCCCCCCC(O)C1CCC(C(O)CCC(O)CC(O)CC(O)CCCC(O)CC2=CC(C)OC2=O)O1` (stereo not drawn): the EC50 is 0.77 µg/mL (≈ 1.22 µM) in the data set with MIA PaCa-2 [2]; 0.34 µg/mL (≈ 0.541 µM) in the data set with A549; 0.78 µg/mL (≈ 1.24 µM) in the data set on HT-29; 2.36 µg/mL (≈ 3.75 µM) in the data set with A498; 0.0195 µg/mL (≈ 0.031 µM) with PC-3; 2.26 µg/mL (≈ 3.59 µM) with MCF7. The LC50 in data set [3] amounted to 34.4 µg/mL (≈ 54.7 µM).
